Compound | logP
CCOc1ccccc1OCC1CN=C(N)O1 (configuration not stated) | 1.24
NC1=NCC(COc2ccccc2Cl)O1 (configuration not stated) | 1.77
Cc1ccc(OCC2CN=C(N)O2)cc1 (configuration not stated) | 1.79
NC1=NCC(COc2ccc(N3CCOCC3)cc2)O1 (configuration not stated) | 0.6
COc1ccc(OCC2CN=C(N)O2)cc1 (configuration not stated) | 1.26
CN(C)c1cccc(OCC2CN=C(N)O2)c1 (configuration not stated) | 1.4
NC1=NCC(COc2ccc([N+](=O)[O-])cc2)O1 (configuration not stated) | 1.17
COc1ccccc1OCC1CN=C(N)O1 (configuration not stated) | 0.85
Cc1ccccc1OCC1CN=C(N)O1 (configuration not stated) | 1.69
NC1=NCC(COc2ccccc2)O1 (configuration not stated) | 1.27
NC1=NCC(COc2cccc([N+](=O)[O-])c2)O1 (configuration not stated) | 1.23
NC1=NCC(COc2ccc(Cl)cc2)O1 (configuration not stated) | 2
